Results reported in paper PMC3725505 (Scientific Reports, 2013).

Target: Kelch domain of human Keap1 (residues 321–609) (Homo sapiens, UniProt Q14145)
Assay: Isothermal titration calorimetry
Format: binding
Settings: ITC, pH 7; for TΔS (entropy term upon binding) / ΔG (change in Gibbs free energy upon binding) / ΔH (change in enthalpy upon binding): T = 298.15 K, 50 mM sodium phosphate, 100 mM NaCl, 1 mM DTT, Table 1 set; for Kd: Kd to Kelch, 25°C

Kelch domain of human Keap1 (residues 321–609), sequence (Q14145 321-609): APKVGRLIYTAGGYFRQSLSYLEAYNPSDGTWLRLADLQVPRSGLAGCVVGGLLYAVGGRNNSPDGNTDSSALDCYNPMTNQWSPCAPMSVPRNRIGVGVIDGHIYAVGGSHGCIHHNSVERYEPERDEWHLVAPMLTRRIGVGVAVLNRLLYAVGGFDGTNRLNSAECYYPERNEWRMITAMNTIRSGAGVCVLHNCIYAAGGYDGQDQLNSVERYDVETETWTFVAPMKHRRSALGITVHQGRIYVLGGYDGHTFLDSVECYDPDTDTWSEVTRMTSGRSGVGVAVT

| Compound | TΔS (entropy term upon binding) [kcal/mol] | ΔG (change in Gibbs free energy upon binding) [kcal/mol] | ΔH (change in enthalpy upon binding) [kcal/mol] | Kd [nM] |
| --- | --- | --- | --- | --- |
| CC[C@H](C)[C@H](NC(=O)[C@@H]1CCCN1C(=O)[C@H](CC(C)C)NC(=O)[C@H](Cc1ccccc1)NC(=O)[C@H](CCC(=O)O)NC(=O)CNC(=O)[C@@H](NC(=O)[C@H](CCC(=O)O)NC(=O)[C@H](CCC(=O)O)NC(=O)[C@H](CC(=O)O)NC(=O)[C@H](CC(C)C)NC(=O)[C@H](CCC(N)=O)NC(=O)[C@H](CC(C)C)NC(=O)[C@H](CCC(N)=O)NC(=O)[C@H](C)NC(=O)[C@H](Cc1ccccc1)NC(C)=O)[C@@H](C)O)C(=O)N[C@@H](CCC(N)=O)C(=O)N1CCC[C@H]1C(=O)N[C@@H](C)C(=O)N[C@@H](CCC(N)=O)C(N)=O [NRF2 site 1] | -6.56 | -10.40 ± 0.03 | -16.96 ± 0.05 | – |
| Ac-SLEEPHSPETGEKVVAGEVN-NH2 [WTX] | -9.03 | -9.01 ± 0.04 | -18.04 ± 0.09 | 100 to 200 |
| Ac-FAQLQLDPETGEFLPIQPAQ-NH2 [NRF2 site 1 E78P] | -5.64 | -11.12 ± 0.03 | -16.76 ± 0.05 | – |
| CSCC[C@H](NC(=O)[C@H](CCC(N)=O)NC(=O)[C@H](CC(C)C)NC(=O)[C@H](CO)NC(=O)[C@H](CCC(N)=O)NC(=O)[C@H](CC(C)C)NC(=O)[C@H](CCC(=O)O)NC(=O)CNC(=O)[C@@H](NC(=O)[C@H](CO)NC(=O)[C@@H]1CCCN1C(=O)[C@H](CC(=O)O)NC(=O)[C@@H](NC(=O)[C@H](CCC(=O)O)NC(=O)[C@H](CCCCN)NC(=O)[C@H](CO)NC(=O)[C@H](CO)NC(=O)[C@H](CC(C)C)NC(C)=O)C(C)C)[C@@H](C)O)C(=O)N1CCC[C@H]1C(=O)N[C@@H](CCC(=O)O)C(N)=O [p62] | -10.34 | -8.04 ± 0.03 | -18.38 ± 0.07 | > 1000 |

Continued, in another order:

| TΔS (entropy term upon binding) [kcal/mol] | ΔG (change in Gibbs free energy upon binding) [kcal/mol] | ΔH (change in enthalpy upon binding) [kcal/mol] | Compound | Kd [nM] |
| --- | --- | --- | --- | --- |
| -10.05 | -9.07 ± 0.03 | -19.12 ± 0.06 | Ac-INVRKRNVESGEEELASKLD-NH2 [PGAM5] | – |
| -9.69 | -7.60 ± 0.03 | -17.29 ± 0.06 | Ac-ANGNANEENGEQEADNEVD-NH2 [PTMA iso 2] | – |
| -8.02 | -6.72 ± 0.05 | -14.74 ± 0.12 | Ac-ANGNAENEENGEQEADNEVD-NH2 [PTMA iso 1] | – |
